Patent US20240316051A1, “A PHARMACEUTICAL COMBINATION AND USE THEREOF” (Ascentage Pharma (Suzhou) Co., Ltd., priority 2021, published 2024)
Like-named read-outs stand apart in the source and are kept apart here.

Biological target: T1, EED (1-441)-His protein (Homo sapiens, UniProt O75530)
T1 construct: 20 nM EED (1-441)-His protein
Test: EED-H3K27Me3 peptide competition binding assay by AlphaScreen
Conditions: read-out: Alpha screen
Description: EED-H3K27Me3 Peptide Competition Binding Assay by AlphaScreen (α-Screen):
The compounds at each concentration (2.5 μl of each) were transferred into a 384-well Perkin Elmer OptiPlate-384 white plates. 5 μl of solutions containing 20 nM EED (1-441)-His protein in the buffer (25 mM HEPES, pH 8, 0.02% Tween-20, 0.5% BSA) were added to the wells and then incubated with compound for 15 min. 2.5 μl of solutions containing 20 nM biotin-H3K27Me3 (19-33) peptide in the buffer (25 mM HEPES, pH 8, 0.02% Tween-20, 0.5% BSA) were added to the wells and then incubated with compound for 30 min. AlphaScreen detection beads mix was prepared immediately before use by mixing nickel chelate acceptor beads and streptavidin donor beads in a 1:1 ratio (Perkin Elmer, Product No. 6760619C/M/R) into the buffer described above. Then 10 μl of the detection beads mix was added to the plate and incubated in the dark at RT for 1 h. The final concentration of donor and acceptor beads was 10 μg/ml for each. Plates were read on CLARIOStar plate reader (BMG Labtech) using the AlphaScreen setting adapted for optimal signal detection with a 615 nm filter, after sample excitation at 680 nm. The emission signal at 615 nm was used to quantify compound inhibition. AlphaScreen signals were normalized based on the reading coming from the positive (maximum signal control) and negative controls (minimum signal control) to give percentage of activities left. The data were then fit to a dose response equation to get the IC50 values.

T1 sequence (O75530 whole entry): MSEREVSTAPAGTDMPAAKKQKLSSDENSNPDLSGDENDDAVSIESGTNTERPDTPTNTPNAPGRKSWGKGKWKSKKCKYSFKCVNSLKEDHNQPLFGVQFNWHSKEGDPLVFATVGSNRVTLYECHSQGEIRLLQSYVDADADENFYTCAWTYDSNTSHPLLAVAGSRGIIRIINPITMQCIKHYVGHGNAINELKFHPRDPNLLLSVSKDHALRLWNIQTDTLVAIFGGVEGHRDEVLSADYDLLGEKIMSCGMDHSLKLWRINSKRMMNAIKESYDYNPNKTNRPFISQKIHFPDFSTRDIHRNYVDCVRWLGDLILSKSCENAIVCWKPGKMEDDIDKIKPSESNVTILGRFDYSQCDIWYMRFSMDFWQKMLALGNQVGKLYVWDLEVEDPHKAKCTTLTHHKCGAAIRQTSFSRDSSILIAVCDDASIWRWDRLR

SMILES	IC50 (Table 4A)	IC50 (IC50 class, Table 4B)
CN1Cc2ccc(C(F)(F)F)nc2-c2cnc(NCc3c(F)ccc4c3CCO4)n3cnc(c23)C1=O [Compound 39, 12-(((5-fluoro-2,3-dihydrobenzofuran-4-yl)methyl)amino)-4-methyl-8-(trifluoromethyl)-4,5-dihydro-3H-2,4,9,11,12a-pentaazabenzo[4,5]cycloocta [1,2,3-cd]inden-3-one]	26.1 nM	–
O=C1OCc2ncccc2-c2cnc(NCc3c(F)ccc4c3CCO4)n3cnc1c23 [Compound 12, 12-(((5-fluoro-2,3-dihydrobenzofuran-4-yl)methyl)amino)-3H,5H-4-oxa-2,6,11,12a-tetraazabenzo[4,5]cycloocta[1,2,3-cd]inden-3-one]	0.34 nM	–
O=C1NCc2c(F)cccc2-c2cnc(NCc3c(F)ccc4c3CCO4)n3cnc1c23 [Compound 20, 6-fluoro-12-(((5-fluoro-2,3-dihydrobenzofuran-4-yl)methyl)amino)-4,5-dihydro-3H-2,4,11,12a-tetra azabenzo[4,5]cycloocta[1,2,3-cd]inden-3-one]	0.61 nM	–
COc1cccc(F)c1CNc1ncc2c3c(ncn13)C(=O)OCc1cc(C(F)(F)F)ccc1-2 [Compound 28, 12-((2-fluoro-6-methoxybenzyl)amino)-7-(trifluoro-methyl)-3H,5H-4-oxa-2,11,12a-triazabenzo[4,5] cycloocta[1,2,3-cd]inden-3-one]	2.58 nM	–
O=C1OCc2ncccc2-c2cnc(NCc3c(F)ccc4occc34)n3cnc1c23 [Compound 10, 12-(((5-fluorobenzofuran-4-yl)methyl)amino)-3H, 5H-4-oxa-2,6,11,12a-tetraazabenzo[4,5]cycloocta [1,2,3-cd]inden-3-one]	1.11 nM	–
Cc1ccc2c(n1)COC(=O)c1ncn3c(NCc4c(F)ccc5c4CCO5)ncc-2c13 [Compound 18, 12-(((5-fluoro-2,3-dihydrobenzofuran-4-yl)methyl)amino)-7-methyl-3H,5H-4-oxa-2,6,11,12a-tetraazabenzo[4,5]cycloocta[1,2,3-cd]inden-3-one]	0.7 nM	–
CC(C)(F)CN1Cc2cc(C(F)(F)F)ccc2-c2cnc(NCc3c(F)ccc4c3CCO4)n3cnc(c23)C1=O [Compound 62, 12-(((5-fluoro-2,3-dihydrobenzofuran-4-yl)methyl)amino)-4-(2-fluoro-2-methylpropyl)-7-(trifluoromethyl)-4,5-dihydro-3H-2,4, 11,12a-tetraazabenzo [4,5]cycloocta[1,2,3-cd]inden-3-one]	1.44 nM	–
O=C1c2ncn3c(NCc4c(F)ccc5c4CCO5)ncc(c23)-c2cnc(C(F)(F)F)cc2CN1CCF [Compound 72, 12-(((5-fluoro-2,3-dihydrobenzofuran-4-yl)methyl)amino)-4-(2-fluoroethyl)-7-(trifluoromethyl)-4,5-dihydro-3H-2,4,8,11,12a-pentaazabenzo[4,5] cycloocta[1,2,3-cd]inden-3-one]	2.69 nM	–
O=C1NCc2ccc(C(F)(F)F)cc2-c2cnc(NCc3c(F)ccc4c3CCO4)n3cnc1c23 [Compound 26, 12-(((5-fluoro-2,3-dihydrobenzofuran-4-yl)methyl)amino)-8-(trifluoromethyl)-4,5-dihydro-3H-2,4,11, 12a-tetraazabenzo[4,5]cycloocta[1,2,3-cd]inden-3-one]	9.84 nM	–
O=C1OCc2c(F)cccc2-c2cnc(NCc3c(F)ccc4c3CCO4)n3cnc1c23 [Compound 11, 6-fluoro-12-(((5-fluoro-2,3-dihydrobenzofuran-4-yl)methyl)amino)-3H,5H-4-oxa-2,11,12a-triazabenzo [4,5]cycloocta[1,2,3-cd]inden-3-one]	0.75 nM	–
Cc1cccc(F)c1CNc1ncc2c3c(ncn13)COCc1ncccc1-2 [Compound 1, N-(2-fluoro-6-methylbenzyl)-3H,5H-4-oxa-2,6,11, 12a-tetraazabenzo[4,5]cycloocta[1,2,3-cd]inden-1 2-amine]	> 10 nM	–
O=C1NCc2ncccc2-c2cnc(NCc3c(F)ccc4c3CCO4)n3cnc1c23 [Compound 16, 12-(((5-fluoro-2,3-dihydrobenzofuran-4-yl)methyl)amino)-4,5-dihydro-3H-2,4,6,11,12a-pentaazabenzo[4,5]cycloocta[1,2,3-cd]inden-3-one]	0.7 nM	–
CC1(O)CC(CN2Cc3nc(C(F)(F)F)ccc3-c3cnc(NCc4c(F)ccc5c4CCO5)n4cnc(c34)C2=O)C1 (stereo not shown) [Compound 47, 12-(((5-fluoro-2,3-dihydrobenzofuran-4-yl)methyl)amino)-4-((3-hydroxy-3-methylcyclobutyl)methyl)-7-(trifluoromethyl)-4,5-dihydro-3H-2,4,6,11,12a-pentaazabenzo[4,5]cycloocta[1,2,3-cd]inden-3-one]	0.91 nM	–
Cc1nn(C)c2c1-c1cnc(NCc3c(F)ccc4c3CCO4)n3cnc(c13)C(=O)N(C1CC1)C2 [Compound 56, 4-cyclopropyl-11-(((5-fluoro-2,3-dihydrobenzo-furan-4-yl)methyl)amino)-6,8-dimethyl-5,6-dihydro-2,4,6,7,10,11a-hexaazacyclopenta[4,5]cycloocta [1,2,3-cd]inden-3(4H)-one]	4.49 nM	–

The next lines start with the values.

IC50 (Table 4A)	IC50 (IC50 class, Table 4B)	SMILES
10.5 nM	–	CC(F)(F)CN1Cc2cc(C(F)(F)F)ncc2-c2cnc(NCc3c(F)ccc4c3CCO4)n3cnc(c23)C1=O [Compound 82, 4-(2,2-difluoropropyl)-12-(((5-fluoro-2,3-dihydrobenzofuran-4-yl)methyl)amino)-7-(trifluoromethyl)-4,5-dihydro-3H-2,4,8,11,12a-pentaazabenzo[4,5] cycloocta[1,2,3-cd]inden-3-one]
–	10 to 100 nM	CCc1cnc2n1Cc1nc(C)ccc1-c1cnc(NCc3c(F)ccc4c3CCO4)n3cnc-2c13 [E 38, 5-ethyl-N-((5-fluoro-2,3-dihydrobenzofuran-4-yl)methyl)-8-methyl-6H-2,3,5a,7,12,13a-hexaazabenzo [4,5]cyclopenta[7,8]cycloocta[1,2,3-cd]inden-1 3-amine]
1.9 nM	–	CC(F)(F)CN1Cc2nc(C(F)(F)F)ccc2-c2cnc(NCc3c(F)ccc4c3CCO4)n3cnc(c23)C1=O [Compound 77, 4-(2,2-difluoropropyl)-12-(((5-fluoro-2,3-dihydrobenzofuran-4-yl)methyl)amino)-7-(trifluoromethyl)-4,5-dihydro-3H-2,4,6,11,12a-pentaazabenzo[4,5] cycloocta[1,2,3-cd]inden-3-one]
–	< 10 nM	O=C1c2ncn3c(NCc4c(F)ccc5c4CCO5)ncc(c23)-c2ccc(C(F)(F)F)nc2CN1CC(F)F [E 8, 4-(2,2-difluoroethyl)-12-(((5-fluoro-2,3-dihydro-benzofuran-4-yl)methyl)amino)-7-(trifluoromethyl)-4,5-dihydro-3H-2,4,6, 11,12a-pentaazabenzo[4,5] cycloocta[1,2,3-cd]inden-3-one]
–	10 to 100 nM	Fc1ccc2c(c1CNc1ncc3c4c(ncn14)-c1nccn1Cc1nc(C(F)(F)F)ccc1-3)CCO2 [E 32, N-((5-fluoro-2,3-dihydrobenzofuran-4-yl)methyl)-8-(trifluoromethyl)-6H-2,3,5a,7,12,13a-hexaaza-benzo[4,5]cyclopenta[7,8]cycloocta[1,2,3-cd]inden-13-amine]
–	< 10 nM	CCc1ccc2c(n1)CN(CC(F)(F)F)C(=O)c1ncn3c(NCc4c(F)ccc5c4CCO5)ncc-2c13 [E 12, 7-ethyl-12-(((5-fluoro-2,3-dihydrobenzofuran-4-yl)methyl)amino)-4-(2,2,2-trifluoroethyl)-4,5-dihydro-3H-2,4,6,11,12a-pentaazabenzo[4,5]cycloocta [1,2,3-cd]inden-3-one]
–	10 to 100 nM	Cc1ccc2c(n1)CN(CC(F)(F)F)C(=O)c1ncn3c(NCc4c(F)ccc5c4CCCO5)ncc-2c13 [E 39, 12-(((6-fluorochroman-5-yl)methyl)amino)-7-methyl-4-(2,2,2-trifluoroethyl)-4,5-dihydro-3H-2,4,6, 11,12a-pentaazabenzo[4,5]cycloocta[1,2,3-cd] inden-3-one]
–	10 to 100 nM	Cc1ccc2c(n1)CCNC(=O)c1ncn3c(NCc4c(F)ccc5c4CCO5)ncc-2c13 [E 29, 13-(((5-fluoro-2,3-dihydrobenzofuran-4-yl)methyl)amino)-8-methyl-5,6-dihydro-2,4,7,12,13a-pentaazabenzo[4,5]cyclonona[1,2,3-cd]inden-3(4H)-one]
–	< 10 nM	CC(C)N1Cc2cc(C(F)F)ncc2-c2cnc(NCc3c(F)ccc4c3CCO4)n3cnc(c23)C1=O [E 11, 7-(difluoromethyl)-12-(((5-fluoro-2,3-dihydro-benzofuran-4-yl)methyl)amino)-4-isopropyl-4,5-dihydro-3H-2,4,8,11,12a-pentaazabenzo[4,5] cycloocta[1,2,3-cd]inden-3-one]
12.3 nM	–	O=C1c2ncn3c(NCc4c(F)ccc5c4CCO5)ncc(c23)-c2ccsc2CN1C1CC1 [Compound 88, 4-cyclopropyl-11-(((5-fluoro-2,3-dihydrobenzofuran-4-yl)methyl)amino)-4,5-dihydro-3H-6-thia-2,4, 10,11a-tetraazacyclopenta[4,5]cycloocta[1,2,3-cd] inden-3-one]
–	10 to 100 nM	Cc1ccc2c(n1)Cn1ccnc1-c1ncn3c(NCc4c(F)ccc5c4CCO5)ncc-2c13 [E 34, N-((5-fluoro-2,3-dihydrobenzofuran-4-yl)methyl)-8-methyl-6H-2,3,5a,7,12,13a-hexaazabenzo[4,5] cyclopenta[7,8]cycloocta[1,2,3-cd]inden-13-amine]
